Assay results as given in the supplement of paper PMC10307832.

Assays:
Experiment in all cases: relative viability (nuclei count vs DMSO), 5 days (fraction); higher = more cells survive
ChaGo-K-1 = tested on: ChaGo-K-1
Outline: (§1)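 Lung cancer cell lines in 1536-well plates got either a single drug or a fixed anchor-drug dose together with five library-drug doses (not always all listed) in √10 steps, by pin tool, on the day after seeding. Nuclei were counted after 5 days, and relative viability is the treated-to-vehicle ratio of nuclei counts. Values are medians of duplicate plates.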

EMC-BAC-2 = tested on: EMC-BAC-2
Outline: as §1

EPLC-272H = tested on: EPLC-272H
Outline: as §1

H3255 = tested on: H3255
Outline: as §1

HCC-44 = tested on: HCC-44
Outline: as §1

HCC-827 = tested on: HCC-827
Outline: as §1

LCLC-103H = tested on: LCLC-103H
Outline: as §1

LU99A = tested on: LU99A
Outline: as §1

NCI-H1395 = tested on: NCI-H1395
Outline: as §1

NCI-H1651 = tested on: NCI-H1651
Outline: as §1

NCI-H1793 = tested on: NCI-H1793
Outline: as §1

NCI-H1944 = tested on: NCI-H1944
Outline: as §1

NCI-H2085 = tested on: NCI-H2085
Outline: as §1

NCI-H2087 = tested on: NCI-H2087
Outline: as §1

NCI-H2405 = tested on: NCI-H2405
Outline: as §1

NCI-H650 = tested on: NCI-H650
Outline: as §1

NCI-H838 = tested on: NCI-H838
Outline: as §1

Compound: CC(=O)O[C@@]12CO[C@@H]1C[C@H](O)[C@@]1(C)C(=O)[C@H](O)C3=C(C)[C@@H](OC(=O)[C@H](O)[C@@H](NC(=O)OC(C)(C)C)c4ccccc4)C[C@@](O)([C@@H](OC(=O)c4ccccc4)[C@H]21)C3(C)C [Docetaxel] + NC(=O)Nc1cc(-c2cccc(F)c2)sc1C(=O)N[C@H]1CCCNC1 [AZD7762] (partner 0.2 µM)
- relative viability (ChaGo-K-1; first compound 0.0002 µM): 0.817
- relative viability (ChaGo-K-1; first compound 0.000632 µM): 0.792
- relative viability (ChaGo-K-1; first compound 0.002 µM): 0.578
- relative viability (ChaGo-K-1; first compound 0.006325 µM): 0.27
- relative viability (ChaGo-K-1; first compound 0.02 µM): 0.161
- relative viability (EMC-BAC-2; first compound 0.0002 µM): 1.03
- relative viability (EMC-BAC-2; first compound 0.000632 µM): 0.885
- relative viability (EMC-BAC-2; first compound 0.002 µM): 0.467
- relative viability (EMC-BAC-2; first compound 0.006325 µM): 0.334
- relative viability (EMC-BAC-2; first compound 0.02 µM): 0.369
- relative viability (EPLC-272H; first compound 0.000632 µM): 0.191
- relative viability (EPLC-272H; first compound 0.002 µM): 0.0912
- relative viability (EPLC-272H; first compound 0.006325 µM): 0.149
- relative viability (EPLC-272H; first compound 0.02 µM): 0.0556
- relative viability (H3255; first compound 0.0002 µM): 0.749
- relative viability (H3255; first compound 0.000632 µM): 0.859
- relative viability (H3255; first compound 0.002 µM): 0.446
- relative viability (H3255; first compound 0.006325 µM): 0.288
- relative viability (H3255; first compound 0.02 µM): 0.288
- relative viability (HCC-44; first compound 0.0002 µM): 1.06
- relative viability (HCC-44; first compound 0.000632 µM): 1.07
- relative viability (HCC-44; first compound 0.002 µM): 1.07
- relative viability (HCC-44; first compound 0.006325 µM): 0.525
- relative viability (HCC-44; first compound 0.02 µM): 0.497
- relative viability (HCC-827; first compound 0.0002 µM): 0.154
- relative viability (HCC-827; first compound 0.000632 µM): 0.239
- relative viability (HCC-827; first compound 0.002 µM): 0.165
- relative viability (HCC-827; first compound 0.006325 µM): 0.165
- relative viability (HCC-827; first compound 0.02 µM): 0.142
- relative viability (LCLC-103H; first compound 0.0002 µM): 0.771
- relative viability (LCLC-103H; first compound 0.000632 µM): 0.826
- relative viability (LCLC-103H; first compound 0.002 µM): 0.654
- relative viability (LCLC-103H; first compound 0.006325 µM): 0.508
- relative viability (LCLC-103H; first compound 0.02 µM): 0.372
- relative viability (LU99A; first compound 0.0002 µM): 0.328
- relative viability (LU99A; first compound 0.000632 µM): 0.253
- relative viability (LU99A; first compound 0.002 µM): 0.194
- relative viability (LU99A; first compound 0.006325 µM): 0.228
- relative viability (LU99A; first compound 0.02 µM): 0.104
- relative viability (NCI-H1395; first compound 0.0002 µM): 0.421
- relative viability (NCI-H1395; first compound 0.000632 µM): 0.38
- relative viability (NCI-H1395; first compound 0.002 µM): 0.379
- relative viability (NCI-H1395; first compound 0.006325 µM): 0.343
- relative viability (NCI-H1395; first compound 0.02 µM): 0.32
- relative viability (NCI-H1651; first compound 0.0002 µM): 0.345
- relative viability (NCI-H1651; first compound 0.000632 µM): 0.507
- relative viability (NCI-H1651; first compound 0.002 µM): 0.394
- relative viability (NCI-H1651; first compound 0.006325 µM): 0.13
- relative viability (NCI-H1793; first compound 0.0002 µM): 0.369
- relative viability (NCI-H1793; first compound 0.000632 µM): 0.381
- relative viability (NCI-H1793; first compound 0.002 µM): 0.299
- relative viability (NCI-H1793; first compound 0.006325 µM): 0.204
- relative viability (NCI-H1793; first compound 0.02 µM): 0.144
- relative viability (NCI-H1944; first compound 0.0002 µM): 0.667
- relative viability (NCI-H1944; first compound 0.000632 µM): 0.476
- relative viability (NCI-H1944; first compound 0.002 µM): 0.339
- relative viability (NCI-H1944; first compound 0.006325 µM): 0.25
- relative viability (NCI-H1944; first compound 0.02 µM): 0.102
- relative viability (NCI-H2085; first compound 0.0002 µM): 0.963
- relative viability (NCI-H2085; first compound 0.000632 µM): 0.954
- relative viability (NCI-H2085; first compound 0.002 µM): 0.849
- relative viability (NCI-H2085; first compound 0.006325 µM): 0.338
- relative viability (NCI-H2085; first compound 0.02 µM): 0.309
- relative viability (NCI-H2087; first compound 0.0002 µM): 1.23
- relative viability (NCI-H2087; first compound 0.000632 µM): 0.822
- relative viability (NCI-H2087; first compound 0.002 µM): 0.203
- relative viability (NCI-H2087; first compound 0.006325 µM): 0.236
- relative viability (NCI-H2087; first compound 0.02 µM): 0.108
- relative viability (NCI-H2405; first compound 0.0002 µM): 0.742
- relative viability (NCI-H2405; first compound 0.000632 µM): 0.582
- relative viability (NCI-H2405; first compound 0.002 µM): 0.46
- relative viability (NCI-H2405; first compound 0.006325 µM): 0.349
- relative viability (NCI-H2405; first compound 0.02 µM): 0.248
- relative viability (NCI-H650; first compound 0.0002 µM): 0.946
- relative viability (NCI-H650; first compound 0.000632 µM): 0.485
- relative viability (NCI-H650; first compound 0.002 µM): 0.363
- relative viability (NCI-H650; first compound 0.006325 µM): 0.28
- relative viability (NCI-H650; first compound 0.02 µM): 0.239
- relative viability (NCI-H838; first compound 0.0002 µM): 0.955
- relative viability (NCI-H838; first compound 0.000632 µM): 0.915
- relative viability (NCI-H838; first compound 0.002 µM): 0.639
- relative viability (NCI-H838; first compound 0.006325 µM): 0.606
- relative viability (NCI-H838; first compound 0.02 µM): 0.574
